{
  "source": "patent US20230210984A1",
  "about": "“ADOPTIVE IMMUNOTHERAPY” (The Council of the Queensland Institute of Medical Research, priority 2019, published 2023)",
  "type_in_all_cases": "cell-based",
  "key": {"[1]": {"test_system": "EBV-associated cell lines (nasopharyngeal and gastric cancer cell lines)", "test": "MTS cell viability assay, IC50 of inhibitors", "details": "for IC50: read-out: IC50 (~50% reduction in cell viability); for IC25 value (sub IC50 value): concentration chosen for in vitro combination treatment", "method": "FIG. 9: Determining the IC50 value of MEK1/2 inhibitors. Representation of the cell viability performed using MTS assay after the indicated cell lines were incubated with 0.1 μM-5 μM of selumatinib (left panel) and trametinib (right panel) for 48 hours. The data are represented as the mean±SD from three independent experiments.\nFIG. 14: Determining the IC50 value of JQ1 inhibitors. Representation of the cell viability performed using MTS assay after the indicated cell lines were incubated with 0.5 μM-10 μM of JQ1 for 48 hours. The data are represented as the mean±SD from three independent experiments.\nCell viability assay was performed using the CellTiter 96® AQueous one cell viability assay reagent (Promega, WI, USA) for three biological replicates per EBV-associated cancer cell lines in triplicate. Briefly, the cancer cells (target cells) were plated at a density of 5000 cells per well in an overall media volume of 200 μL on a 96-well tissue-culture plate (BD Falcon™). The effector AdE1-LMPpoly transfected T cells were freshly thawed in RPMI-1640 with 10% FCS and 120 IU/mL of recombinant IL-2 at 37° C. and […]. Post 24 hrs of plating and incubation at 37° C. and […], the effector T cells were mixed to the target cells at a gradient ratio of effector to target (E:T) of 5:1-100:1. The exact number of T cells (To) used per E:T ratio (ET) was independently used as control alongside PBS treated target cells (Es) and sole media (M0). After 24 hrs of incubation at 37° C. and […], MTS was added to each well (1:100 dilution in media) and was incubated for 1 hour following which the plate was centrifuged at 1,200×g at room temperature for 5 min and absorbance of the mixture at an optical density of 490 nm was measured via a microplate reader. The relative cell viability was calculated using the following formula: […]\nTo determine the upregulation of MAPK pathway in EBV-associated solid cancers, we first identified the IC50 value of MEK1/2 inhibitors (AZD6244 or selumetanib and trematinib) across nasopharyngeal and gastric cancer cell lines (with drug concertation ranging from 0.1 μM-5 μM). […] In the next set of experiments, we wanted to determine the impact of MEK1/2 inhibition in combination with allogeneic EBV-specific T cells on EBV-associated solid cancers. As such, we treated the respective EBV-associated cell lines (both gastric and nasopharyngeal) individually or in combination with MEK1/2 inhibitors (both selumetanib and trematinib) and EBV-specific T cells.\nSimilarly, we targeted MYC-dependent cancer intrinsic pathway using JQ1 inhibitor by first determining the IC50 value of the inhibitor across nasopharyngeal and gastric cancer cell lines (with drug concertation ranging from 0.5 μM-10 μM). […] To characterized the impact of JQ1 inhibition in combination with allogeneic EBV-specific T cells on EBV-associated cancer cells, we used IC25 value JQ1 (2.5 μM) alongside an effector to target ratio of 25:1 of the respective HLA matched allogeneic EBV-specific T cells in vitro. […] We also performed phenotypic characterization, using flow cytometry, of SNU719 and C666.1 cells after 16 hours of individual and dual treatment in vitro."}, "SNU719 and C666.1 cells": {"test_system": "SNU719 and C666.1 cells", "test": "Flow cytometry of cancer cell intrinsic pathways and immune regulatory molecules", "details": "16 hours, JQ1 2.5 μM; for MHC-Class I expression: inhibitor alone and in combination with HLA-matched T cells; for MHC-Class I expression / MYC expression / pERK1/2 expression / pSTAT3 expression: selumatinib 1 μM", "method": "FIG. 13: Phenotyping the impact of dual combination of MEK1/2 inhibitor and HLA matched allogeneic EBV specific T coils on cancer cell intrinsic pathways. Representation of the cancer cell phenotype after 16 hours of individual and dual combination of selumatinib (1 μM) and HLA-matched EBV specific T cells (effector-to-target ratio of 25:1) among SNU719 (upper panel) and C666.1 (lower panel) on the expression of (A) pERK1/2; (B) MHC-Class I; (C) pSTAT3; and (D) MYC performed using flow cytometry. The data are represented as the mean±SD from three independent experiments. P-values were calculated using one-way ANOVA: ns=not significant, *p<0.05, **p<0.01, ***p<0.001 and ****p<0.0001.\nFIG. 17: Phenotyping the impact of dual combination of JQ1 inhibitor and MLA matched allogeneic EBV-specific T cells on cancer cell intrinsic pathways. Representation of the cancer cell phenotype after 16 hours of individual and dual combination of JQ1 (2.5 μM) and HLA-matched EBV specific T cells (effector-to-target ratio of 25:1) among SNU719 (upper panel) and C666.1 (lower panel) on the expression of (A) MYC; (B) pERK1/2; (C) pAKT; and (D) pSTAT3 performed using flow cytometry. The data are represented as the mean±SD from three independent experiments. P-values were calculated using one-way ANOVA: ns=not significant, *p<0.05, **p<0.01, ***p<0.001 and ****p<0.0001.\nFIG. 18: Phenotyping the impact of dual combination of JQ1 inhibitor and HLA matched allogeneic EBV specific T cells on immune regulatory molecules. Representation of the cancer cell phenotype after 16 hours of individual and dual combination of JQ1 (2.5 μM) and HLA-matched EBV specific T cells (effector-to-target ratio of 25:1) among SNU719 (upper panel) and C666.1 (lower panel) on the expression of (A) MHC Class-I; (B) PD-L1; and (C) CD47 performed using flow cytometry. The data are represented as the mean±SD from three independent experiments. P-values were calculated using one-way ANOVA: ns=not significant, *p<0.05, **p<0.01, ***p<0.001 and ****p<0.0001.\nIn next set of experiments, we wanted to investigate the effect of the dual combination the cancer cell intrinsic pathway and describe the rationale of the effective combination of MEK1/2 inhibition with T cell treatment. […] As a result, we observed upregulation of MHC-Class I expression in presence of selumatinib alone and in combination with respective HLA-matched T cells (FIG. 13B). […] Thus, inhibition of MEK1/2 pathway results in upregulation of MHC-class I expression via upregulation of STAT3 pathway and downregulation of MYC which enabling better therapeutic compatibility in presence of HLA-matched allogeneic T cells.\nNext, we wanted to determine the specificity of the combination and as such we challenged SNU719 and C666.1 cells with HLA-mismatch allogeneic T cells alongside JQ1 inhibitor individually and in combination. […] In next set of experiments, we wanted to investigate rationale of the effective combination of JQ1 inhibition with T cell treatment. […] As a result, it caused downregulation of pERK1/2, pAKT and pSTAT3 expression (FIG. 17B-C)."}, "SNU719 cells": {"test_system": "SNU719 cells", "test": "Annexin V binding assay, inhibitor combined with EBV-specific T cells", "details": "combination with EBV-specific T cells (25:1) vs individual treatment, 48 hrs; AZD6244 0.5 μM, trematinib 1.0 μM, JQ1 5.0 μM", "protocol": "We treated SNU719 cells (gastric cancer cells) with MEK1/2 inhibitor (AZD6244 (or selumetanib) and trematinib) at concentration of 0.5 μM and 1.0 μM respectively, as individual treatment or in combination with EBV-specific T cells (25:1) as effector to target ratio.\nWe treated SNU719 cells with JQ1 inhibitor at concentration of 5.0 μM, as individual treatment or in combination with EBV-specific T cells (25:1) as effector to target ratio."}},
  "note": "Like-named read-outs stand apart in the source and are kept apart here.",
  "data": [
    {"compound": "Cc1sc2c(c1C)C(c1ccc(Cl)cc1)=N[C@@H](CC(=O)OC(C)(C)C)c1nnc(C)n1-2", "note": "[JQ1]", "values": [
      {"measurement": "IC50", "setting": "[1]; EBV-associated nasopharyngeal and gastric cancer cell lines, MTS assay, 48 hours, compared to NPC43 (EBV-)", "value": "~2.5", "unit": "µM"},
      {"measurement": "IC25 value (sub IC50 value)", "setting": "[1]", "value": 2.5, "unit": "µM"},
      {"measurement": "CD47 expression", "setting": "SNU719 and C666.1 cells", "value": "downregulation"},
      {"measurement": "PD-L1 expression", "setting": "SNU719 and C666.1 cells", "value": "downregulation"},
      {"measurement": "pAKT expression", "setting": "SNU719 and C666.1 cells", "value": "downregulation"},
      {"measurement": "MHC-Class I expression", "setting": "SNU719 and C666.1 cells", "value": "enhancing"},
      {"measurement": "MYC expression", "setting": "SNU719 and C666.1 cells", "value": "significant reduction"},
      {"measurement": "pERK1/2 expression", "setting": "SNU719 and C666.1 cells", "value": "downregulation"},
      {"measurement": "pSTAT3 expression", "setting": "SNU719 and C666.1 cells", "value": "downregulation"},
      {"measurement": "binding of Annexin V among SNU719 cells", "setting": "SNU719 cells", "value": "significantly higher binding of Annexin V"}
    ]},
    {"compound": "Cn1cnc2c(F)c(Nc3ccc(Br)cc3Cl)c(C(=O)NOCCO)cc21", "note": "[selumetanib]", "values": [
      {"measurement": "IC50", "setting": "[1]; 48 h", "value": "~2.5", "unit": "µM"},
      {"measurement": "IC25 value (sub IC50 value)", "setting": "[1]", "value": 1, "unit": "µM"},
      {"measurement": "MHC-Class I expression", "setting": "SNU719 and C666.1 cells", "value": "upregulation"},
      {"measurement": "MYC expression", "setting": "SNU719 and C666.1 cells", "value": "downregulation"},
      {"measurement": "pERK1/2 expression", "setting": "SNU719 and C666.1 cells", "value": "significant reduction"},
      {"measurement": "pSTAT3 expression", "setting": "SNU719 and C666.1 cells", "value": "upregulation"},
      {"measurement": "binding of Annexin V among SNU719 cells", "setting": "SNU719 cells", "value": "significantly higher binding of Annexin V"}
    ]}
  ]
}
